According to patent US11926612B2, “Heterocyclic apelin receptor (APJ) agonists and uses thereof” (Research Triangle Institute, priority 2016, dated 2024):

Assays:
apelin receptor (APJ) = target: T1, apelin receptor (APJ) (Homo sapiens, UniProt P35414); assay: in vitro activity as apelin agonists (methods of Giddings et al.; Apelin-13 positive control); format: cell-based; conditions: apelin agonist activity, average; read-out: EC50 (nM) Ave
T1 sequence (P35414 1-380): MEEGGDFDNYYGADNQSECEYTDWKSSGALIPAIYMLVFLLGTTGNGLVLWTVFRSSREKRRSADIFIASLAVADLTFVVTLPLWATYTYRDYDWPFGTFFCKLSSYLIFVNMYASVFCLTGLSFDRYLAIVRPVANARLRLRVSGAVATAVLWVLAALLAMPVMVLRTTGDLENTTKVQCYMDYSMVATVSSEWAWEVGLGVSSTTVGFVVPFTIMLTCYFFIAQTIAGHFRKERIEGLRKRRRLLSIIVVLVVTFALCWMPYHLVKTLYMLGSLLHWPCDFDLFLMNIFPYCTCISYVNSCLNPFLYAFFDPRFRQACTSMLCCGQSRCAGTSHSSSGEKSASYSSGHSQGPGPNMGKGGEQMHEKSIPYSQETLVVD
From the text: The compounds above were studied for their in vitro activity as apelin agonists using the methods described by Giddings et al. Giddings et al., 2010 Int J High Thro Screen. 1:39-47, the contents of which are hereby incorporated by reference in its entirety. The methods described in Giddings et al. were used as described and Apelin-13 was a positive control.

[1] = Cellular uptake assay: Caco-2 monolayer permeability (A-to-B / B-to-A); format: in vitro ADME; conditions: human, Papp (B-to-A)/Papp (A-to-B), Caco-2, 5 μM, pH 7.4
Protocol: Caco-2 cells (clone C2BBe1) were obtained from American Type Culture Collection (Manassas, VA). Cell monolayers were grown to confluence on collagen-coated, microporous, polycarbonate membranes in 12-well Costar Transwell plates. Details of the plates and their certification are shown below. The permeability assay buffer was Hanks' balanced salt solution (HBSS) containing 10 mM HEPES and 15 mM glucose at a pH of 7.4. The buffer in the receiver chamber also contained 1% bovine serum albumin. The dosing solution concentration was 5 μM for each test article in the assay buffer. Cell monolayers were dosed on the apical side (A-to-B) or basolateral side (B-to-A) and incubated at 37° C. with 5% CO2 in a humidified incubator. Samples were taken from the donor and receiver chambers at 120 minutes. Each determination was performed in duplicate. After the experiment, all assay buffers were removed from the inserts. Cell monolayers were dosed with blank 500 μM lucifer yellow on the A-to-B side and blank HBSS on the B-to-A side and incubated at 37° C. Samples were taken from the B-to-A side at 60 minutes. The flux of lucifer yellow was measured for each monolayer to ensure no damage was inflicted to the cell monolayers during the flux period. All samples were analyzed by LC-MS/MS using electrospray ionization. The apparent permeability (Papp) and percent recovery were calculated as follows: Papp=(dCr/dt)×Vr/(A×CA) (1) Percent Recovery=100×((Vr×Cr^final)+(Vd×Cd^final))/(Vd×CN) (2)
Where, dCr/dt is the slope of the cumulative concentration in the receiver compartment versus time in M s^−1;
Vr is the volume of the receiver compartment in cm^3;
Vd is the volume of the donor compartment in cm^3;
A is the area of the insert (1.13 cm^2 for 12-well Transwell);
CA is the average of the nominal dosing concentration and the measured 120-minute donor concentration in μM;
CN is the nominal concentration of the dosing solution in M;
Cr^final is the cumulative receiver concentration in M at the end of the incubation period;
Cd^final is the concentration of the donor in μM at the end of the incubation period.
Efflux ratio (ER) is defined as Papp (B-to-A)/Papp (A-to-B).
Absorption Potential Classification:
Papp (A-to-B)<1.0×10^−6 cm/s: Low
Papp (A-to-B) ≥1.0×10^−6 cm/s: High
Significant Efflux is defined as: ER≥2.0 and Papp (B-to-A)≥1.0×10^−6 cm/

Row | EC50 (apelin receptor (APJ)) | efflux ratio at 120 min, 5 μM [1] | Structure (SMILES)
1 | 15 nM | 4 | O=C(C[C@H](CCN1CCCC(F)(F)C1)NC(=O)c1cn(-c2ccccc2C(F)(F)F)c(C2CCCC2)n1)NC1CCC1 [compound 472, (3S)-N-cyclobutyl-3-({2-cyclopentyl-1-[2-(trifluoromethyl)phenyl]-1H-imidazol-4-yl}formamido)-5-(3,3-difluoropiperidin-1-yl)pentanamide]
2 | 7.5 nM | 46 | O=C(C[C@H](CCN1CCCC(F)(F)C1)NC(=O)c1nc(-c2ncccc2C(F)(F)F)n(C2CCCC2)n1)NC1CCC1 [compound 530, (3S)-N-cyclobutyl-3-({1-cyclopentyl-5-[3-(trifluoromethyl)pyridin-2-yl]-1H-1,2,4-triazol-3-yl}formamido)-5-(3,3-difluoropiperidin-1-yl)pentanamide]
3 | 9 nM | 17 | O=C(N[C@@H](CCN1CCCC(F)(F)C1)Cc1nnn[nH]1)c1nc(C2CCCC2)n(-c2ccccc2C(F)(F)F)n1 [compound 616, 5-cyclopentyl-N-[(2S)-4-(3,3-difluoropiperidin-1-yl)-1-(1H-1,2,3,4-tetrazol-5-yl)butan-2-yl]-1-[2-(trifluoromethyl)phenyl]-1H-1,2,4-triazole-3-carboxamide]
4 | 46 nM | 7 | O=C(O)C[C@H](CCN1CCCC(F)(F)C1)NC(=O)c1nc(C2CCCC2)n(-c2ccccc2C(F)(F)F)n1 [compound 461, (3S)-3-({5-cyclopentyl-1-[2-(trifluoromethyl)phenyl]-1H-1,2,4-triazol-3-yl}formamido)-5-(3,3-difluoropiperidin-1-yl)pentanoic acid]
